This note sets out measurements from patent publication US5747452A, “Method of modulating tumor cell migration using fibronectin type III peptides” (La Jolla Cancer Research Foundation, priority 1995, dated 1998).

The subject of the test is C11 CHO cells. The test can be described thus: Migration assay (in vitro wounding assay). The following applies: 50 μM for 48 hours. The class given is cell-based, Chinese Hamster. Here is the method: Migration was tested by using Chinese Hamster Ovary (CHO) cells in an in vitro "wounding" assay as described previously (Giancotti and Ruoslahti, Cell 60,849(1990)). CHO cells are commercially available and have ATCC number CRL 9096. A3 is an overexpressor of the α5 β1 integrin created by cDNA transfection as described in the article cited above. C11 is a control-transfected line expressing only the endogenous CHO α5 β1. As described in Example XIV below, cells were grown in the absence or presence of 50 μM III1 -C for 48 hours, then the culture was "wounded" by removing cells from the plastic dish by scraping the dish with a plastic pipette tip. The migration of the cells into the "wound" path was monitored by photography at various times.
It is known from previous work (see Giancotti and Ruoslahti, (1990), supra) that there is a correlation between an increase in fibronectin matrix assembly and the decrease in tumorigenic phenotype. Since the polypeptides of the present invention including the recombinant polypeptides are able to modulate fibronectin matrix assembly, these proteins were tested to determine if they could modulate the tumorigenic phenotype of cells. […] As a comparison, A3 CHO cells, which do overexpress α5 β1, fibronectin receptors and are less tumorigenic, were grown in parallel. […]

For the substance “III1 -C: Sequence ID No. 11; recombinant protein, residues 600-674 of human fibronectin, from pGEX-2T”, the “effect on cell migration” value is “retardation of their migration”.
